Test results as given in patent US20220370606A1, “Combination Treatments Of Cancer Comprising A TLR Agonist” (Pfizer Inc., priority 2018, published 2022).

How the values were obtained:
Type in all cases: in vivo, mouse
[1] = test system: effector T cells in the tumor (TILs) (CD8+/CD44+ cells); assay: Example 5: activated effector T cells in the tumor (TILs) of B16F10 tumor mice (FACS); settings: 24 hours after treatment, 5 mg/kg, mean from 5 mice
Experimental: (§1) This example illustrates activation of immune cells in a mouse tumor model in response to a TLR3 or TLR9 agonist.
(§2) Six to eight week old female C57BL/6 mice were purchased from the Jackson Laboratories. All animals were housed in a pathogen free vivarium facility at Pfizer and experiments were conducted according to the protocols in accordance with the Institutional Animal Care and Use Committee (IACUC) guidelines.
(§3) The B16F10 melanoma cell line was purchased from American Type Culture Collection (ATCC). Cells were cultured in Dulbecco's Modified Eagle's Medium (DMEM) supplemented with 10% fetal bovine serum (FBS), 2 mM L-glutamine at 37° C. in 5% carbon dioxide (CO2), and IMPACT-tested for pathogens at Research Animal Diagnostic Laboratory (RADIL) (Columbia, Mo.). Pathogen-free cells growing in an exponential growth phase were harvested and used for tumor inoculation.
(§4) The TLR3 agonist was polyinosine-polycytidylic acid [poly(I:C)], high molecular weight [a synthetic analog of double-stranded RNA (dsRNA)], purchased from InvivoGen. The TLR9 agonist was CpG24555
On day 0, C57BL/6 mice were inoculated subcutaneously at the right flank with 5×10^5 B16F10 cells in PBS. […] The treatment groups were 1) PBS (control); 2) poly(I:C) (TLR3 agonist); 3) CpG24555 (TLR9 agonist). Treatment was started on the same day as randomization. […]

[2] = test system: B16F10 melanoma tumors; assay: Example 1: TLR3 agonist with anti-OX40 and/or anti-4-1BB antibody, murine B16F10 melanoma model; settings: poly(I:C) 2.5 mg/kg it x1 day 9, anti-OX40 5 mg/kg, anti-4-1BB 3 mg/kg ip x3
Experimental: This example illustrates the therapeutic activity of a TLR3 agonist in combination with one or both of: i) an agonist anti-OX40 antibody and ii) an agonist anti-4-1BB antibody in a murine B16F10 melanoma model.
as §2, §3
(§5) The TLR3 agonist was polyinosine-polycytidylic acid [poly(I:C)], high molecular weight [a synthetic analog of double-stranded RNA (dsRNA)], purchased from InvivoGen. Poly(I:C) was dosed at 2.5 mg/kg, in phosphate buffered saline (PBS) (Life Technologies), intratumorally (it) for one dose 9 days after tumor inoculation.
(§6) Therapeutic mouse anti-mouse 4-1BB mAb (mouse immunoglobulin G1 [mIgG1]), derived from the parental clone MAB9371 (R&D Systems), was prepared in-house. Therapeutic mouse anti-OX40 antibodies with the mIgG1 isotype (anti-OX40 mIgG1) were derived from parental clone OX86 in house. Anti-OX40 antibody and anti-4-1BB antibodies were dosed at 5 mg/kg and 3 mg/kg, respectively, in phosphate buffered saline (PBS) (Life Technologies), and dosed at 0.2 mL per mouse intraperitoneally (ip) for 3 doses 3 to 4 days apart.
(§7) C57BL/6 mice were inoculated subcutaneously at the right flank with 0.3 x 10^6 B16F10 cells in 0.1 mL of PBS. When tumors reached target size, mice were randomized into treatment groups. Treatment was started on the same day as randomization. Tumor size was measured 3-4 times weekly in 2 dimensions using a caliper, and the volume was calculated in cubic millimeters using the formula: V=0.5 L×W^2 where L is the longest diameter of the tumor and W is the diameter perpendicular to L. Body weight was recorded weekly.
Results are shown in FIGS. 1A-1H and summarized in Table 1 below [mean tumor size±standard deviation (SD)]. Statistical analyses were performed using GraphPad Prism 6.0. 2-way ANOVA was applied to compare the statistical differences among multiple groups relative to the isotype control or other treatment groups. P <0.05 was considered as significant difference. Tumor measurements are in mm^3. For most treatment groups, more days post-tumor inoculation (also referred to as “days post implantation”) are shown in FIGS. 1A-1 H than in the corresponding information in Table 1 (due to the reduction in the number of mice in most groups over the course of the study, and the increase in SD with a reduced number of mice).

[3] = test system: B16F10 melanoma tumors; assay: Example 3A: TLR3 agonist with anti-PD-1, anti-OX40, anti-4-1BB antibodies, murine B16F10 melanoma model; settings: poly(I:C) 2.5 mg/kg it x1 day 9, anti-PD-1 15, anti-OX40 5, anti-4-1BB 3 mg/kg ip x3
Description: This example illustrates the therapeutic activity of a TLR3 agonist in combination with i) an antagonist anti-PD-1 antibody; ii) an antagonist anti-PD-1 antibody and an agonist anti-OX40 antibody; iii) an antagonist anti-PD-1 antibody and an agonist anti-4-1-BB antibody; and iv) an antagonist anti-PD-1 antibody, an agonist anti-4-1-BB antibody, and an agonist anti-OX40 antibody in a murine B16F10 melanoma model.
as §2
as §3, with “MO).” for “Mo.).”
as §5
as §6, with “in house. Therapeutic mouse anti-mouse PD-1 mAb (mIgG1) was prepared in-house. Anti-PD-1, anti-OX40 antibody and” for “in house. Anti-OX40 antibody and”, “dosed at 15 mg/kg, 5 mg/kg” for “dosed at 5 mg/kg”
as §7, with “0.3×10^6” for “0.3 x 10^6”
Results from Example 3A are shown in FIGS. 3A-3L and summarized in Table 3 below [mean tumor size±standard deviation (SD)]. Statistical analyses were performed using GraphPad Prism 6.0. 2-way ANOVA was applied to compare the statistical differences among multiple groups relative to the isotype control or other treatment groups. P<0.05 was considered as significant difference. Tumor measurements are in mm^3. For most treatment groups, more days post-tumor inoculation (also referred to as “days post implantation”) are shown in FIGS. 3A-3L than in the corresponding information in Table 3 (due to the reduction in the number of mice in most groups over the course of the study, and the increase in SD with a reduced number of mice).

[4] = test system: dendritic cells in the spleen (CD11c+/CD11b+/CD8+ cells); assay: Example 5: activated dendritic cells in the spleen of B16F10 tumor mice (FACS); settings: 24 hours after treatment, 5 mg/kg, mean from 5 mice
Experimental: as §1, §2, §3, §4
(§8) On day 0, C57BL/6 mice were inoculated subcutaneously at the right flank with 5×10^5 B16F10 cells in PBS. […] The treatment groups were 1) PBS (control); 2) poly(I:C) (TLR3 agonist); 3) CpG24555 (TLR9 agonist). Treatment was started on the same day as randomization. Poly(I:C) and CpG24555 were dosed at 5 mg/kg, in phosphate buffered saline (PBS) (Life Technologies).
(§9) 24 hours after treatment, the mice were euthanized and their spleen, draining lymph nodes, and B16F10 tumor were harvested. The harvested spleen, draining lymph nodes, and B16F10 tumor were dissociated to single cell suspensions, and then stained for evaluation of multiple markers by FACS analysis. To evaluate dendritic cell activation, cells were incubated with anti-CD11c, anti-CD11b, and anti-CD8 mAbs, and additionally one of anti-CD40, anti-CD86, or anti-PD-L1 mAbs. To evaluate effector T cell activation, cells were incubated with anti-CD8 and anti-CD44 mAbs, and additionally one of anti-OX40 or anti-4-1BB mAbs. […]

[5] = test system: dendritic cells in the draining lymph nodes (CD11c+/CD11b+/CD8+ cells); assay: Example 5: activated dendritic cells in the draining lymph nodes of B16F10 tumor mice (FACS); settings: 24 hours after treatment, 5 mg/kg, mean from 5 mice
Experimental: as §1, §2, §3, §4, §8, §9

## polyinosine-polycytidylic acid [TLR3 agonist]
[1]
  % 4-1BB+ of CD8+/CD44+ cells (activated effector T cells): 36.8%
  % OX-40+ of CD8+/CD44+ cells (activated effector T cells): 55.3%
[2]; day 9 post-tumor inoculation
  Mean Tumor Size: 76 mm^3
[2]; day 10 post-tumor inoculation
  Mean Tumor Size: 116 mm^3
[2]; day 12 post-tumor inoculation
  Mean Tumor Size: 151 mm^3
[2]; day 14 post-tumor inoculation
  Mean Tumor Size: 196 mm^3
[2]; day 16 post-tumor inoculation
  Mean Tumor Size: 309 mm^3
[2]; day 18 post-tumor inoculation
  Mean Tumor Size: 405 mm^3
[2]; day 20 post-tumor inoculation
  Mean Tumor Size: 678 mm^3
[3]; day 9 post-tumor inoculation
  Mean Tumor Size: 74 mm^3
[3]; day 13 post-tumor inoculation
  Mean Tumor Size: 156 mm^3
[3]; day 15 post-tumor inoculation
  Mean Tumor Size: 236 mm^3
[3]; day 17 post-tumor inoculation
  Mean Tumor Size: 349 mm^3
[3]; day 20 post-tumor inoculation
  Mean Tumor Size: 796 mm^3
[3]; day 22 post-tumor inoculation
  Mean Tumor Size: 1206 mm^3
[4]
  % CD40+ of CD11c+/CD11b+/CD8+ cells (activated dendritic cells): 20%
  % CD86+ of CD11c+/CD11b+/CD8+ cells (activated dendritic cells): 22.2%
  % PD-L1+ of CD11c+/CD11b+/CD8+ cells (activated dendritic cells): 23%
[5]
  % CD40+ of CD11c+/CD11b+/CD8+ cells (activated dendritic cells): 9.9%
  % CD86+ of CD11c+/CD11b+/CD8+ cells (activated dendritic cells): 7.5%
  % PD-L1+ of CD11c+/CD11b+/CD8+ cells (activated dendritic cells): 9%
